Data from patent US20060160756A1, “Treatment and prevention of multi-drug resistance” (priority 2004, published 2006).
Read-outs that look alike come from different tables or passages of the source. Blank lines part the entries; values can stand above or below the compound they belong to.

Experiments:
[1] = test system: K562/adriamycin-resistant cells; test: MTT assay: dofediquar effect on ADM cytotoxicity / growth of MDR cells; type: cell-based; conditions: for Growth rate (% of control): 2nd incubation (24 hr) without MS-209, MS-209 3 μM where present
[2] = test system: drug-resistant cancer cell lines; test: In vitro studies using drug-resistant cancer cell lines (effective concentration); type: cell-based
Protocol: The effective concentration of dofediquar of about 3 μM (ca. 2 μg/mL) indicated in in vitro studies using drug-resistant cancer cell lines, is achieved at doses of 300 mg or higher.

[3] = Concentrations of dofediquar in plasma and tumor tissue after single oral administration in colon 26-bearing mice; type: in vivo; conditions: for Concentration of MS-209, Plasma / Concentration of MS-209, Tumor: mean ± SD of N = 3
[4] = Pharmacokinetics of dofediquar after single oral administration to fasted healthy male volunteers; type: in vivo, healthy male Japanese adults; conditions: for AUC / Cmax / Tmax / t½: mean ± S.D.
Protocol: The pharmacokinetic parameters of dofediquar (MS-209) are investigated in fasted healthy male Japanese adults. The study design is described in Table 2. The plasma concentrations of dofediquar after single oral administration of increasing doses from 100 to 1200 mg to fasted healthy male Japanese adults is illustrated in FIGS. 2 and 3.

[5] = 0.5 h after single oral 200 mg/kg
[6] = 1 h after single oral 200 mg/kg
[7] = 2 h after single oral 200 mg/kg
[8] = 5 h after single oral 200 mg/kg
[9] = 24 h after single oral 200 mg/kg
[10] = 100 mg single oral dose, fasted
[11] = 300 mg single oral dose, fasted
[12] = 600 mg single oral dose, fasted
[13] = 900 mg single oral dose, fasted
[14] = 1200 mg single oral dose, fasted
[15] = single oral doses 100 to 1200 mg

SMILES: COc1cccc2c1C(=O)c1c(O)c3c(c(O)c1C2=O)C[C@@](O)(C(=O)CO)C[C@@H]3O[C@H]1C[C@H](N)[C@H](O)[C@H](C)O1 [ADM, adriamycin]
Growth rate (% of control) ([1]; ADM 100 ng/ml, 1st incubation 1 hr): 93.4 % of control | Growth rate (% of control) ([1]; ADM 100 ng/ml, 1st incubation 3 hr): 102 % of control | Growth rate (% of control) ([1]; ADM 100 ng/ml, 1st incubation 6 hr): 92.0 % of control | Growth rate (% of control) ([1]; ADM 300 ng/ml, 1st incubation 1 hr): 88.1 % of control | Growth rate (% of control) ([1]; ADM 300 ng/ml, 1st incubation 6 hr): 100 % of control

Concentration of MS-209, Plasma [3, 5]: 25600 ± 9300 ng/mL | Concentration of MS-209, Tumor [3, 5]: 15.9 ± 8.1 µg/g | Concentration of MS-209, Plasma [3, 6]: 33000 ± 6300 ng/mL | Concentration of MS-209, Tumor [3, 6]: 30.6 ± 7.5 µg/g | Concentration of MS-209, Plasma [3, 7]: 27300 ± 7000 ng/mL | Concentration of MS-209, Tumor [3, 7]: 28.0 ± 9.4 µg/g | Concentration of MS-209, Plasma [3, 8]: 24600 ± 10000 ng/mL | Concentration of MS-209, Tumor [3, 8]: 25.8 ± 10 µg/g | Concentration of MS-209, Plasma [3, 9]: 610 ± 410 ng/mL | Concentration of MS-209, Tumor [3, 9]: 0.52 ± 0.49 µg/g | AUC, Plasma ([3]; single oral 200 mg/kg): 368000 ng·h/mL | AUC, Tumor ([3]; single oral 200 mg/kg): 376 µg·h/g | AUC [4, 10]: 720 ± 210 ng·h/mL | Cmax [4, 10]: 470 ± 200 ng/mL | Tmax [4, 10]: 1.04 ± 0.40 h | t½ [4, 10]: 0.89 ± 0.37 h | AUC [4, 11]: 7290 ± 2540 ng·h/mL | Cmax [4, 11]: 2700 ± 740 ng/mL | Tmax [4, 11]: 1.04 ± 0.40 h | t½ [4, 11]: 1.17 ± 0.25 h | AUC [4, 12]: 32470 ± 5940 ng·h/mL | Cmax [4, 12]: 10110 ± 2140 ng/mL | Tmax [4, 12]: 0.75 ± 0.22 h | t½ [4, 12]: 2.25 ± 0.47 h | AUC [4, 13]: 62900 ± 9670 ng·h/mL | Cmax [4, 13]: 14030 ± 2480 ng/mL | Tmax [4, 13]: 1.67 ± 0.68 h | t½ [4, 13]: 2.39 ± 0.37 h | AUC [4, 14]: 105390 ± 20100 ng·h/mL | Cmax [4, 14]: 20990 ± 2150 ng/mL | Tmax [4, 14]: 1.00 ± 0.27 h | t½ [4, 14]: 3.10 ± 0.31 h | Detection in plasma ([4]; dose of 10 mg, single oral): not detected | Detection in plasma ([4]; dose of 30 mg, single oral): detected in one of 6 subjects | Manner of decline of plasma concentration after the peak ([4]; doses of 100 mg or higher, single oral): declines in a monophasic manner | Dose at which the effective concentration of about 3 μM (ca. 2 μg/mL) is achieved in plasma ([4]; single oral dose, fasted): ≥ 300 mg | Dose dependence of Tmax [4, 15]: does not change | Dose dependence of half-life [4, 15]: increases with increasing dose
SMILES: O=C(C(c1ccccc1)c1ccccc1)N1CCN(CC(O)COc2cccc3ncccc23)CC1 (stereo not drawn) [dofediquar]
Cell growth inhibition with vs without dofediquar during the 2nd incubation ([1]; co-treated with adriamycin (100-300 ng/ml) and dofediquar (3 μM), then 2nd incubation (24 hr) with dofediquar alone): slightly more inhibited | Enhancement of ADM cytotoxicity ([1]; pretreated with 3 μM dofediquar for 24 hours, washed away, then ADM alone for 72 hours (FIG. 1)): does not show an enhancement of ADM cytotoxicity | Effective concentration [2]: about 3 μM | Effective concentration ([2]; same value as 3 μM): ca. 2 μg/mL | Dose dependence of Cmax and AUC [4, 15]: increase more steeply than expected from the dose increase
